Source: ChEMBL document CHEMBL3217536, “Structureactivity relationships of gramicidin S analogs containing (-3-pyridyl)-,-dehydroalanine residues on membrane permeability” (Medchemcomm, 2011)
In brackets after ≈: the same amount, converted by molar mass. Activity calls are given as the source filed them. No cut-off for these calls is given here. *1 amine or outer side, *2 acyl side, *3 side chain or, on linkers, in order; H or OH if unused. Where a SMILES comes first, the peptide text is derived from it. [ ]: non-standard residue; d: D form. X1 = O=C(/C(=C/c1cccnc1)N[*:1])[*:2]; X2 = O=C(/C(=C/c1ccccc1)N[*:1])[*:2]; d3Pal = N[C@H](Cc1cccnc1)C(=O)O; Orn = NCCC[C@H](N)C(=O)O

Legend:
Escherichia coli [1] = assay: Antimicrobial activity against Escherichia coli K-12 W3110 after 20 hrs by liquid microdilution method in presence of PMBN; type: functional
Staphylococcus aureus [2] = assay: Antimicrobial activity against Staphylococcus aureus FDA 209P assessed as decrease in cell survival after 30 mins by colony counting method; type: functional; conditions: 0.5 h
Escherichia coli [3] = assay: Antimicrobial activity against Escherichia coli K-12 W3110 after 20 hrs by liquid microdilution method; type: functional; conditions: K-12 W3110, 20 h
Escherichia coli [4] = assay: Induction of cytoplasmic membrane disruption in Escherichia coli K-12 W3110 assessed as change in potassium permeability after 30 mins; type: functional; conditions: K-12 W3110, 0.5 h, read-out: ED50 (the source's name)
Staphylococcus aureus [5] = assay: Induction of cytoplasmic membrane disruption in Staphylococcus aureus FDA 209P assessed as change in potassium permeability after 30 mins; type: functional; conditions: for EC50: 0.5 h, read-out: ED50 (the source's name)
[6] = Hemolytic activity against human erythrocytes; type: ADME, cell-based, Erythrocyte; conditions: read-out: ED50 (the source's name)
Escherichia coli [7] = assay: Antimicrobial activity against Escherichia coli K-12 W3110 assessed as decrease in cell survival after 30 mins by colony counting method; type: functional; conditions: K-12 W3110, 0.5 h
Staphylococcus aureus [8] = assay: Antimicrobial activity against Staphylococcus aureus FDA 209P after 20 hrs by liquid microdilution method; type: functional

Structure (SMILES)	Activity (Escherichia coli [1])	LC50 (Staphylococcus aureus [2])	MIC (Escherichia coli [3])	EC50 (Escherichia coli [4])	EC50 (Staphylococcus aureus [5])	HC50 [6]	LC50 (Escherichia coli [7])	MIC (Staphylococcus aureus [8])	Activity (Staphylococcus aureus [5])	MIC (Escherichia coli [1]; K-12 W3110, 20 h)
CO[C@@H]1[C@@H](OC(N)=O)[C@@H](O)[C@H](Oc2ccc3c(O)c(NC(=O)c4ccc(O)c(CC=C(C)C)c4)c(=O)oc3c2C)OC1(C)C	Active	–	–	–	–	–	–	–	–	–
CC(C)C[C@@H]1NC(=O)[C@H](C)NC(=O)[C@H](C(C)C)NC(=O)[C@@H]2CCCN2C(=O)/C(=C/c2cccnc2)NC(=O)[C@H](CC(C)C)NC(=O)[C@H](C)NC(=O)[C@H](C(C)C)NC(=O)[C@@H]2CCCN2C(=O)/C(=C/c2cccnc2)NC1=O (cyclo(AL[X1]PVAL[X1]PV))	–	50 µM	> 114 µM	> 100 µM	50 µM	50 µM	> 100 µM	114 µM (≈ 120 µg/mL)	–	–
CC(C)C[C@@H]1NC(=O)[C@H](C)NC(=O)[C@H](C(C)C)NC(=O)[C@@H]2CCCN2C(=O)/C(=C/c2cccnc2)NC(=O)[C@H](CC(C)C)NC(=O)[C@H](CCCN)NC(=O)[C@H](C(C)C)NC(=O)[C@@H]2CCCN2C(=O)/C(=C/c2cccnc2)NC1=O (cyclo(AL[X1]PV[Orn]L[X1]PV))	–	10 µM	106 µM (≈ 116 µg/mL)	> 100 µM	10 µM	50 µM	> 100 µM	13 µM (≈ 14.3 µg/mL)	–	–
CC(C)C[C@@H]1NC(=O)[C@H](CCCN)NC(=O)[C@H](C(C)C)NC(=O)[C@@H]2CCCN2C(=O)/C(=C/c2cccnc2)NC(=O)[C@H](CC(C)C)NC(=O)[C@H](CCCN)NC(=O)[C@H](C(C)C)NC(=O)[C@@H]2CCCN2C(=O)/C(=C/c2cccnc2)NC1=O (cyclo(L[X1]PV[Orn]L[X1]PV[Orn]))	inactive	10 µM	26 µM (≈ 29.6 µg/mL)	50 µM	5 µM	> 100 µM	50 µM	6 µM (≈ 6.84 µg/mL)	Dose-dependent effect	–
CC(C)C[C@@H]1NC(=O)[C@H](CCCN)NC(=O)[C@H](C(C)C)NC(=O)[C@@H]2CCCN2C(=O)/C(=C/c2ccccc2)NC(=O)[C@H](CC(C)C)NC(=O)[C@H](CCCN)NC(=O)[C@H](C(C)C)NC(=O)[C@@H]2CCCN2C(=O)/C(=C/c2cccnc2)NC1=O (cyclo(L[X2]PV[Orn]L[X1]PV[Orn]))	–	10 µM	26 µM (≈ 29.6 µg/mL)	50 µM	5 µM	20 µM	50 µM	3 µM (≈ 3.42 µg/mL)	–	–
CC(C)C[C@@H]1NC(=O)[C@H](CCCN)NC(=O)[C@H](C(C)C)NC(=O)[C@@H]2CCCN2C(=O)/C(=C/c2ccccc2)NC(=O)[C@H](CC(C)C)NC(=O)[C@H](CCCN)NC(=O)[C@H](C(C)C)NC(=O)[C@@H]2CCCN2C(=O)/C(=C/c2ccccc2)NC1=O (cyclo(L[X2]PV[Orn]L[X2]PV[Orn]))	–	5 µM	26 µM (≈ 29.6 µg/mL)	20 µM	5 µM	5 µM	20 µM	3 µM (≈ 3.41 µg/mL)	–	–
CC(C)C[C@@H]1NC(=O)[C@H](CCCN)NC(=O)[C@H](C(C)C)NC(=O)[C@@H]2CCCN2C(=O)[C@@H](Cc2cccnc2)NC(=O)[C@H](CC(C)C)NC(=O)[C@H](CCCN)NC(=O)[C@H](C(C)C)NC(=O)[C@@H]2CCCN2C(=O)[C@@H](Cc2cccnc2)NC1=O (cyclo(L[d3Pal]PV[Orn]L[d3Pal]PV[Orn]))	–	20 µM	50 µM (≈ 57.2 µg/mL)	50 µM	20 µM	> 100 µM	100 µM	50 µM (≈ 57.2 µg/mL)	–	–
CC(C)C[C@@H]1NC(=O)[C@H](CCCN)NC(=O)[C@H](C(C)C)NC(=O)[C@@H]2CCCN2C(=O)[C@@H](Cc2ccc(O)cc2)NC(=O)[C@H](CC(C)C)NC(=O)[C@H](CCCN)NC(=O)[C@H](C(C)C)NC(=O)[C@@H]2CCCN2C(=O)[C@@H](Cc2ccc(O)cc2)NC1=O (cyclo(L[dY]PV[Orn]L[dY]PV[Orn]))	–	–	26 µM (≈ 30.5 µg/mL)	–	–	10 µM	–	3 µM (≈ 3.52 µg/mL)	–	–
CC(C)C[C@@H]1NC(=O)[C@H](CCCN)NC(=O)[C@H](C(C)C)NC(=O)[C@@H]2CCCN2C(=O)[C@@H](Cc2ccccc2)NC(=O)[C@H](CC(C)C)NC(=O)[C@H](CCCN)NC(=O)[C@H](C(C)C)NC(=O)[C@@H]2CCCN2C(=O)[C@@H](Cc2ccccc2)NC1=O [GRAMICIDIN S] (cyclo(L[dF]PV[Orn]L[dF]PV[Orn]))	–	5 µM	13 µM (≈ 14.8 µg/mL)	20 µM	2 µM	5 µM	20 µM	3 µM (≈ 3.42 µg/mL)	Dose-dependent effect	4 µg/mL
